Test results from patent publication US6399782B1, “Benzimidazole inhibitors of fructose 1,6-bisphosphatase” (Metabasis Therapeutics, Inc., priority 1997, dated 2002).
pEC50, pIC50: −log10 of the molar value.

How the values were obtained:
human liver FBPase = target: T1, human liver FBPase (Homo sapiens, UniProt P09467); experiment: Inhibition of human liver FBPase; type: biochemical; settings: for inhibition of human liver FBPase activity (FIG. 2): result in words
T1 construct: made in house; host or cells: E. coli BL21
T1 sequence (P09467 2-338 limits assumed): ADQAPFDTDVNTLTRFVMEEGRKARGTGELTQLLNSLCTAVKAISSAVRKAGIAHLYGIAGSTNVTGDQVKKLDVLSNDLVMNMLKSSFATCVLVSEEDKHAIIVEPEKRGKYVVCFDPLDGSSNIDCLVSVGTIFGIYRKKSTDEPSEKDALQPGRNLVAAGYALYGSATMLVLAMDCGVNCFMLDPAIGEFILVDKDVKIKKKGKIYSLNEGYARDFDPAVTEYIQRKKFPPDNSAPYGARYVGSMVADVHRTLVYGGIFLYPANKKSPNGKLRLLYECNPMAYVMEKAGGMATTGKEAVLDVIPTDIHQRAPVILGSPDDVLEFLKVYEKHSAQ
Method: Enzymatic activity was measured spectrophotometrically in reactions that coupled the formation of product (fructose 6-phosphate) to the reduction of dimethylthiazoldiphenyltetrazolium bromide (MTT) via NADP and phenazine methosulfate (PMS), using phosphoglucose isomerase and glucose 6-phosphate dehydrogenase as the coupling enzymes. Reaction mixtures (200 μl) were made up in 96-well microtitre plates, and consisted of 50 mM Tris-HCl, pH 7.4, 100 mM KCl, 5 mM EGTA, 2 mM MgCl2, 0.2 mM NADP, 1 mg/ml BSA, 1 mM MTT, 0.6 mM PMS, 1 unit/mL phosphoglucose isomerase, 2 units/mL glucose 6-phosphate dehydrogenase, and 0.150 mM substrate (fructose 1,6-bisphosphate). Inhibitor concentrations were varied from 0.01 μM to 10 μM. Reactions were started by the addition of 0.002 units of pure hlFBPase and were monitored for 7 minutes at 590 nm in a Molecular Devices Plate Reader (37° C.).

hlFBPase = target: T2, hlFBPase (Homo sapiens, UniProt P09467); experiment: AMP site binding (displacement of radiolabeled AMP)
T2 construct: made in house; host or cells: E. coli BL21
T2 sequence (P09467 2-338 limits assumed): T1 sequence (P09467 2-338 limits assumed)
Method: To determine whether compounds bind to the allosteric AMP binding site of hlFBPase, the enzyme was incubated with radiolabeled AMP in the presence of a range of test compound concentrations. The reaction mixtures consisted of […] ^3H-AMP (54 mCi/mmol) and […] test compound in 25 mM Tris-HCl, pH 7.4, 100 mM KCl and 1 mM MgCl2. 1.45 mg of homogeneous FBPase (±1 nmole) was added last. After a 1 minute incubation, AMP bound to FBPase was separated from unbound AMP by means of a centrifugal ultrafiltration unit (“Ultrafree-MC”, Millipore) used according to the instructions of the manufacturer. The radioactivity in aliquots (100 μL) of the upper compartment of the unit (the retentate, which contrains enzyme and label) and the lower compartment (the filtrate, which contains unbound label) were quantified using a Beckman liquid scintillation counter. The amount of AMP bound to the enzyme was estimated by comparing the counts in the filtrate (the unbound label) to the total counts in the retentate.

mouse liver FBPase = target: T3, mouse liver FBPase (Mus musculus, UniProt Q9QXD6); experiment: Inhibition of mouse liver FBPase; type: biochemical; settings: partially purified mouse liver fraction
T3 construct: This partially purified fraction was used for enzyme assays; from tissue; host or cells: mouse liver, 45-75% ammonium sulfate fraction
T3 sequence (Q9QXD6 2-338 limits assumed): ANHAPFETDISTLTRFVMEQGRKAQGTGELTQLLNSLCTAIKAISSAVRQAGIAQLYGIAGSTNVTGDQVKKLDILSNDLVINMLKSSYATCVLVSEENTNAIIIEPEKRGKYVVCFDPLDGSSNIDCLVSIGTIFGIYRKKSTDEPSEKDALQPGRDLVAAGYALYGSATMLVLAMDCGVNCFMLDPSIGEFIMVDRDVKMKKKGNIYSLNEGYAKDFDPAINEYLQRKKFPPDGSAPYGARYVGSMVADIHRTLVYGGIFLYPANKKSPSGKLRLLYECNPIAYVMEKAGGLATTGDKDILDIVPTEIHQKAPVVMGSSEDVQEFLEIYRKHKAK
Method: Enzymatic activity was measured spectrophotometrically in reactions that coupled the formation of product (fructose 6-phosphate) to the reduction of dimethylthiazoldiphenyltetrazolium bromide (MTT) via NADP and phenazine methosulfate (PMS), using phosphoglucose isomerase and glucose 6-phosphate dehydrogenase as the coupling enzymes. Reaction mixtures (200 μl) were made up in 96-well microtitre plates, and consisted of 50 mM Tris-HCl, pH 7.4, 100 mM KCl, 5 mM EGTA, 2 mM MgCl2, 0.2 mM NADP, 1 mg/ml BSA, 1 mM MTT, 0.6 mM PMS, 1 unit/mL phosphoglucose isomerase, 2 units/mL glucose 6-phosphate dehydrogenase, and 0.150 mM substrate (fructose 1,6-bisphosphate). Inhibitor concentrations were varied from 0.01 μM to 10 μM.
Mouse liver FBPase was obtained by homogenizing freshly isolated mouse liver in 100 mM Tris-HCl buffer, pH 7.4, containing 1 mM EGTA, and 10% glycerol. […] This fraction was redissolved in the homogenization buffer and desalted on a PD-10 gel filtration column (Biorad) eluted with same. This partially purified fraction was used for enzyme assays. Both rat liver and mouse liver FBPase were assayed as described for human liver FBPase.

[1] = Estimation of the oral bioavailability of prodrugs of phosphonic acids; type: in vivo; settings: rat, prodrug by oral gavage approximately 20 or 40 mg/kg parent equivalents, urinary recovery of parent vs i.v. parent
Method: Prodrugs were dissolved in 10% ethanol/90% polyethylene glycol (mw 400) and administered by oral gavage at doses of approximately 20 or 40 mg/kg parent compound equivalents to 6-hour fasted, Sprague Dawley rats (220-240 g). The rats were subsequently placed in metabolic cages and urine was collected for 24 hours. The quantity of parent compound excreted into urine was determined by HPLC analysis. An ODS column eluted with a gradient from potassium phosphate buffer, pH 5.5 to acetonitrile was employed for these measurements. Detection was at 310-325 nm. […] Parent compounds were typically dissolved in dimethyl sulfoxide, and administered via the tail vein in animals that were briefly anesthetized with halothane.

rat hepatocytes = experiment: Inhibition of gluconeogenesis in rat hepatocytes; type: cell-based
Method: Hepatocytes were prepared from overnight fasted Sprague-Dawley rats (250-300 g) according to the procedure of Berry and Friend (Berry, M. N., Friend, D. S., 1969, J. Cell. Biol. 43, 506-520) as modified by Groen (Groen, A. K., Sips, H. J., Vervoorn, R. C., Tager, J. M., 1982, Eur. J. Biochem. 122, 87-93). Hepatocytes (75 mg wet weight/mL) were incubated in 1 ml Krebs-bicarbonate buffer containing 10 mM Lactate, 1 mM pyruvate, 1 mg/mL BSA, and test compound concentrations from 1 to 500 μM. Incubations were carried out in a 95% oxygen, 5% carbon dioxide atmosphere in closed, 50-mL Falcon tubes submerged in a rapidly shaking water bath (37° C.). After 1 hour, an aliquot (0.25 mL) was removed, transferred to an Eppendorf tube and centrifuged. 50 μL of supernatant was then assayed for glucose content using a Sigma Glucose Oxidase kit as per the manufacturer's instructions.

[2] = test system: fasted Sprague Dawley rats; experiment: Blood glucose lowering in fasted rats; type: in vivo, rat; settings: 20 mg/kg intraperitoneally, 18 hours fasted Sprague Dawley rats, one hour post injection
Method: Sprague Dawley rats (250-300 g) were fasted for 18 hours and then dosed intraperitoneally with 20 mg/kg of compounds 12.53, 12.61, or 12.64. The vehicle used for drug administration was 50 mM sodium bicarbonate. Blood samples were obtained from the tail vein of conscious animals just prior to injection and one hour post injection. Blood glucose was measured using a HemoCue Inc. glucose analyzer according to the instructions of the manufacturer.

Compound | inhibition of human liver FBPase activity (FIG. 2) (human liver FBPase) | melting point | % Oral bioavailability [1] | further results
NC(=O)c1ncn([C@@H]2O[C@H](COP(=O)(O)O)[C@@H](O)[C@H]2O)c1N [ZMP, 5-aminoimidazole-4-carboxamide riboside monophosphate, reference compound] |  |  |  | pIC50 (human liver FBPase; values in text, read-out: hlFBPase IC50): 4.92; pEC50 (hlFBPase; displacement of 3H-AMP from hlFBPase, read-out: ED50 for AMP displacement): 3.60; displacement of AMP from human liver FBPase (FIG. 3) (hlFBPase; result in words): displaced AMP from human liver FBPase in a dose dependent manner
CCc1ccc2c(nc(-c3ccc(P(=O)(O)O)o3)n2CC(C)C)c1N [Compound 12.52, 4-Amino-5-ethyl-1-isobutyl-2-(2-phosphono-5-furanyl)benzimidazole] | inhibit human liver FBPase activity in vitro in a dose dependent manner | 220 to 225 °C |  | pIC50 (mouse liver FBPase): 6.11
CC(C)Cn1c(-c2ccc(P3(=O)OCC(CO)CO3)o2)nc2ccc(Cl)cc21 (centres unmarked) [Compound 31.13, 6-Chloro-1-isobutyl-2-{5-[2-(hydroxymethyl)-propan-1,3-yl]phosphono-2-furanyl}benzimidazole] |  |  | 10.9% | 
CC(C)(C)Cn1c(-c2ccc(P(=O)(OCOC(=O)C(C)(C)C)OCOC(=O)C(C)(C)C)o2)nc2c(N)ncnc21 [Compound C] |  |  | 5.3% | 
CC(C)Cn1c(-c2ccc(P(=O)(O)O)o2)nc2c(N)c(F)ccc21 [Compound 12.53, 4-Amino-5-fluoro-1-isobutyl-2-(2-phosphono-5-furanyl)benzimidazole] | inhibit human liver FBPase activity in vitro in a dose dependent manner | 230 to 235 °C |  | pIC50 (rat hepatocytes; Hepatocyte, glucose production from lactate/pyruvate, isolated rat hepatocytes, 1 hour): 5.62; inhibition of glucose production in rat hepatocytes (FIG. 4) (rat hepatocytes; result in words): inhibit glucose production in vitro in rat hepatocytes; blood glucose lowering [2]: 55±14%
CC(=O)OCC1COP(=O)(c2ccc(-c3nc4ccc(Cl)cc4n3CC(C)C)o2)OC1 (centres unmarked) [Compound 31.14, 6-Chloro-1-isobutyl-2-{5-[2-(acetoxymethyl)-propan-1,3-yl]phosphono-2-furanyl}benzimidazole] |  |  | 12.5% | 
